From patent US20240075093A1, “COMPOSITIONS AND METHODS OF TREATING A PI3K MEDIATED DISEASE” (VIRGINIA TECH INTELLECTUAL PROPERTIES, INC., priority 2020, published 2024)

Key:
[1] = target: p110b (Homo sapiens, UniProt P42338); test: p110b activity ELISA (cell-free kinase assay); format: biochemical
Description: The activity of the p110b PI3K catalytic subunit was monitored via ELISA upon increasing doses of Ante-Selectide-18.
Relative activity is the ratio of respective treated groups to their non-treated controls.
(FIG. 51A) 3D of a p110β/p85α complex determined by SWISS-MODEL and Cluspro. (FIG. 51B) Protein sequences were aligned using COBALT. C2 domains (top) are show. Red bars: same residues; Grey bars: different residues; Red lines: missing residues. […] in p110β C2 (bottom) is shown and termed as 018. Docking of p110β and p85α (FIG. 51C) or p110α and p85α (FIG. 51D) was done by SWISS-MODEL, Cluspro, and Chimera. The 018 motif is labeled in magenta. Deletion of β18 motif (FIG. 51E) changed the 3D shapes of p110β/p85 (FIG. 51C). (FIG. 51F) p110β cell-free kinase assay. An enzyme-linked immunosorbent assay (ELISA) was used to measure levels of lipids PIP2/PIP3. (FIG. 51G) Effect of PI3K inhibitors on p110s using ELISA. p110β (FIG. 51H) or p110α (FIG. 51I) was docked with Selectide-18-bound p85α using Cluspro/Chimera.
Applicant also included a control scramble peptide containing the antennapedia sequence followed by the amino acid sequence of Ante-Selectide-18 randomly scrambled. […] Applicant reports that this drug is not effective at inhibiting the kinase activity of p110b or other PI3K subunits at 100 nM, showing the promise of the Ante-Selectide-18 peptide as a potent selective p110b inhibitor at a low dose.

[2] = system: U87MG cells; test: MTS cell viability assay; format: cell-based, human; settings: 20 uM TGX-221 and 50 uM TMZ, 4 days, MTS
Method: (§1) Cell viability was measured by the MTS assay. P values were determined using the student t test or one-way ANOVA. Error bars represent three independent experiments.
Cell viability was determined using the MTS viability assay. The vehicle DMSO was the control and set as 100%. Treated cells were normalized to DMSO-treated cells. […] (FIG. 43D) Scores of Excess Over Bliss in FIG. 43C calculated using the Bliss Independence model. One-way ANOVA and student t test were used to determine statistical significance.
(§2) Cell viability was determined by the MTS cell viability assay (Promega) as described previously 21,24-27. In brief, 250 to 1,000 cells were plated in the wells of a 96-well plate-based upon the cell growth rate. Because the drug treatment usually takes 6-7 days, fast-growing cells could be over-grown if plated at a high cell density. For αCT1 treatment experiments, Applicant intended to plate cells at a low density to minimize the formation of gap junctions, and thus, more Cx43-hemichannels can be present. […] At each hour time point, the absorbance at 490 nm was measured using a FilterMax F3 microplate reader (Molecular Devices, LLC) according to the manufacturer's instructions. Percent cell viability was obtained by dividing the absorbance of treatment groups to those of untreated and respective vehicle control groups.

[3] = system: astrocytes; test: MTS cell viability assay; format: cell-based, human; settings: 20 uM TGX-221 and 50 uM TMZ, 4 days
Method: as §1
(FIG. 46A) The effect of the αCT1/GSK/TMZ combo in VTC-103 cells. […] (FIG. 46B) The effect of the αCT1/GSK/TMZ combo in LN229 cells. (FIG. 46C) EOB scores of drug combinations in VTC-103 and LN229 cells. […] (FIG. 46E) EOB scores of drug combinations in astrocytes. One-way ANOVA with Dunnett test for correction of multiple comparisons or Student's t test was used to determine statistical significance. *: P<0.05; ns: not significant. Drug combinations with strong synergistic effect were marked in red.
as §2, with “density.” for “density. For αCT1 treatment experiments, Applicant intended to plate cells at a low density to minimize the formation of gap junctions, and thus, more Cx43-hemichannels can be present.”

[4] = system: LN229/GSCs; test: wound-healing (migration) assay; format: cell-based; settings: 8 μM, 24 hours
Method: (§3) (FIG. 8A) Wound-healing assay. Cells were plated confluently and then treated with PI3K isoform-selective inhibitors at 8 μM for 24 hours. Cells were imaged at 0- and 24-hour time point. Images of 24-hour time point are shown. Scale bar: […]. (FIG. 8B-8D) Quantification of migration distance. Images from three different areas were analyzed using Image J. Migration distances were obtained by subtracting 24-hour measurements with those of 0-hour.

[5] = system: SF295 cells; test: wound-healing (migration) assay; format: cell-based; settings: 8 μM, 24 hours
Method: as §3

[6] = system: tumor growth in mice; test: GBM tumor growth in mice; format: in vivo
[7] = system: PI3K/AKT signaling in SF295 cells; test: immunoblotting of PI3K/AKT signaling in SF295 cells; format: cell-based

Chain of p110b (P42338 whole entry): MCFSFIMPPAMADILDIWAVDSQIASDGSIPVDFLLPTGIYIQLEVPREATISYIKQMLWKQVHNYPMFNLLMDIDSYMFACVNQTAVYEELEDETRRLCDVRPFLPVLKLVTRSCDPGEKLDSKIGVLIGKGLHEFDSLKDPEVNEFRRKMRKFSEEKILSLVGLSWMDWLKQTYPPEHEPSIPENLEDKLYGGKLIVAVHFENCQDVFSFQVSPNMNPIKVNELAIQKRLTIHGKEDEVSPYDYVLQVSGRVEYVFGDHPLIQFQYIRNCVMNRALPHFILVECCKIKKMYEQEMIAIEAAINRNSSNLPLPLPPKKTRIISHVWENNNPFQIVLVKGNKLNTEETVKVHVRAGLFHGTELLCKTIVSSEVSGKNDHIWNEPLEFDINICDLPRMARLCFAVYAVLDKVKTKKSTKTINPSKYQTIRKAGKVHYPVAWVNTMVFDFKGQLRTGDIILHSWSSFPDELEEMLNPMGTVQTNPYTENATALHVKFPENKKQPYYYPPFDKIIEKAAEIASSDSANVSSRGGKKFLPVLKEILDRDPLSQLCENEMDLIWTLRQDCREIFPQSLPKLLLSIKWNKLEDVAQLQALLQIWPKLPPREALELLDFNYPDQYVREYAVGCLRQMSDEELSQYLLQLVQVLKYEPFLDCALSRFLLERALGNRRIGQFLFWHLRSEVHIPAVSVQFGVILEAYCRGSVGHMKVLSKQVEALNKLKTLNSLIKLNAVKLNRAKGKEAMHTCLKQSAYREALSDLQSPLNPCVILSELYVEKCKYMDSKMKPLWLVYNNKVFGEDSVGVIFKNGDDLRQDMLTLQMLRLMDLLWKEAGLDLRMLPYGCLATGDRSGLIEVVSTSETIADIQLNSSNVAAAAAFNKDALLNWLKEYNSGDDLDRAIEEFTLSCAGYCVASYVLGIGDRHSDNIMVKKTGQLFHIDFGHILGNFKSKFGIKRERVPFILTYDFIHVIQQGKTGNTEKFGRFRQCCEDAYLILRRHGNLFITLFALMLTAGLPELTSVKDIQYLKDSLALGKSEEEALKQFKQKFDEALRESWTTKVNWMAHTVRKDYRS

Q: What does the source list for `Cc1cc(C(C)Nc2ccccc2)c2nc(N3CCOCC3)cc(=O)n2c1` (stereo not shown) [TGX-221]?
A: activity of p110β ([1]; 10 nM TGX-221, ELISA): didn't inactivate p110β; activity of p110b ([1]; 100 nM, ELISA, isolated protein subunit): not effective; TMZ sensitivity [2]: increased TMZ sensitivity; effect of TGX-221 plus TMZ combination on astrocytes [3]: did not harm astrocytes; cell migration [4]: inhibited the migration; cell migration [5]: inhibited the migration; tumor growth in mice [6]: slow down tumor growth; AKT and RAC1/CDC42 activity ([7]; 8 μM TGX-221, 24 hours): inactivated; protein levels of MMP2 ([7]; 8 μM TGX-221, 24 hours): not; protein levels of MMP9 ([7]; 8 μM TGX-221, 24 hours): decreased protein levels; BIM-EL, BIM-L, BIM-S (apoptotic forms of BIM) ([7]; 25 μM TGX-221, 96 hours): remarkable increase; cleaved caspase 3 (c-CASP3) ([7]; 25 μM TGX-221, 96 hours): remarkable increase; levels of pFOXO3T32 ([7]; 25 μM TGX-221, 96 hours): significantly decreased
